Measured values taken from ChEMBL document CHEMBL5357008, “Novel Pyrazolopyridine Inhibitors of Monoacylglycerol Lipase for the Treatment of Neurodegenerative Diseases and Neuroinflammation” (ACS Med Chem Lett, 2024).
pIC50: −log10 of the molar value.

target: T1, Monoglyceride lipase (Homo sapiens, UniProt Q99685); assay: Inhibition of MAGL (unknown origin) using 2-arachidonoylglycerol as substrate preincubated with compound for 15 mins followed by substrate addition and measured after 30 mins by mass spectrometer analysis
T1 sequence (Q99685 whole entry): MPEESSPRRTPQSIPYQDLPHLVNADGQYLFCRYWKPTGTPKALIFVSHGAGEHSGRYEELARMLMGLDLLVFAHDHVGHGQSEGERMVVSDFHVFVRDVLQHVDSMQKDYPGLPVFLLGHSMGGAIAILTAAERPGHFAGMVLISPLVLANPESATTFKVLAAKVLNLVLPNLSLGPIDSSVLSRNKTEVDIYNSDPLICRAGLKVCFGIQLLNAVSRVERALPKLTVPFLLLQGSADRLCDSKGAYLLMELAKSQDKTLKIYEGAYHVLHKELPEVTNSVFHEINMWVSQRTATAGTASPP

Row | pIC50 | Compound
1 | 8.70 | C[C@H]1c2nn(C)c(-c3cc(F)cc(F)c3)c2CCN1C(=O)c1cc(F)cc(OCC2CNC(=O)O2)c1Cl (stereo partly drawn)
2 | 7.57 | COc1cccc(C(=O)N2CCc3c(nn(C)c3-c3cc(Cl)cc(CS(N)(=O)=O)c3)[C@@H]2C)c1Cl
3 | 8.30 | CC1c2nn(C)c(-c3cc(F)cc(F)c3)c2CCN1C(=O)c1cc(F)cc(OCC2CNC(=O)C2)c1Cl (stereo not drawn)
